Patent US20070128217A1 (priority 2003, published 2007)

Assays:
[1] = test system: antibodies in sera from SARS patients (sera 1a, 1b, 2, 6, 37, 62, London, SARS-yellow, SARS-green); assay type: binding, human; parameters: Binding of serum 6 to linear peptides of protein X1 of SARS-CoV Urbani / Binding of serum 37 to linear peptides of protein X1 of SARS-CoV Urbani / Binding of serum 6 to looped/cyclic peptide (PEPSCAN-ELISA) / Binding of serum 37 to looped/cyclic peptide (PEPSCAN-ELISA) / Binding of serum 37 to looped/cyclic peptides of protein X1 of SARS-CoV Urbani / Binding of serum 6 to linear peptides of protein X2 / Binding of serum 37 to linear peptides of protein X2 / Binding of serum 37 to looped/cyclic peptides of protein X2 of SARS-CoV Urbani / Binding of serum 6 to linear peptides of protein M of SARS-CoV Urbani / Binding of serum 37 to linear peptides of protein M of SARS-CoV Urbani / Binding of serum 6 to looped/cyclic peptides of protein M of SARS-CoV Urbani / Binding of serum 37 to looped/cyclic peptides of protein M of SARS-CoV Urbani / Binding of serum 6 to linear peptides of protein X3 of SARS-CoV Urbani / Binding of serum 37 to linear peptides of protein X3 of SARS-CoV Urbani / Binding of serum 37 to looped/cyclic peptides of protein X3 of SARS-CoV Urbani / Binding of serum 6 to linear peptides of protein X4 of SARS-CoV Urbani / Binding of serum 37 to linear peptides of protein X4 of SARS-CoV Urbani / Binding of serum 37 to looped/cyclic peptides of protein X4 of SARS-CoV Urbani / Binding of serum 6 to linear peptides of protein X5 of SARS-CoV Urbani / Binding of serum 37 to linear peptides of protein X5 of SARS-CoV Urbani / Binding of serum 37 to looped/cyclic peptides of protein X5 of SARS-CoV Urbani / Binding of serum 6 to linear peptides of protein N of SARS-CoV Urbani / Binding of serum 37 to linear peptides of protein N of SARS-CoV Urbani / Binding of serum 6 to linear peptide (PEPSCAN-ELISA) / Binding of serum 1a to looped/cyclic peptides of protein N of SARS-CoV Urbani / Binding of serum 1b to looped/cyclic peptides of protein N of SARS-CoV Urbani / Binding of serum 2 to looped/cyclic peptides of protein N of SARS-CoV Urbani / Binding of serum 6 to looped/cyclic peptides of protein N of SARS-CoV Urbani / Binding of serum 37 to looped/cyclic peptides of protein N of SARS-CoV Urbani / Binding of serum 62 to looped/cyclic peptides of protein N of SARS-CoV Urbani / Binding of serum London to looped/cyclic peptides of protein N of SARS-CoV Urbani / Binding of serum SARS-green to looped/cyclic peptides of protein N of SARS-CoV Urbani: unit not given here
[2] = test system: control sera (pooled serum of ten healthy LUMC hospital workers; commercial negative donor pooled serum from the Dutch bloodbank); assay type: binding, human; parameters: Binding of Control serum LUMC to linear peptides / Binding of Control serum Blood-bank to linear peptides / Binding of Control serum LUMC to looped peptides / Binding of Control Serum Blood-Bank to Looped peptides / Binding of Control serum LUMC to linear peptides of the protein M of SARS-CoV Urbani / Binding of Control serum Blood-bank to linear peptides of the protein M of SARS-CoV Urbani / Binding of Control serum LUMC to looped peptides of the protein M of SARS-CoV Urbani / Binding of Control Serum Blood-Bank to Looped peptides of the protein M of SARS-CoV Urbani: unit not given here
[3] = test system: rabbit serum obtained by immunizing a rabbit with the SARS-CoV strain Frankfurt 1; assay type: binding; parameters: Binding of a rabbit serum to linear peptides / Binding of a rabbit serum to looped peptides / Rabbit serum linear peptides / Rabbit serum looped peptides / Binding of a rabbit serum to linear peptides of protein N of SARS-CoV Urbani (Rabbit serum linear peptides) / Binding of a rabbit serum to looped/cyclic peptides of protein N of SARS-CoV Urbani (Rabbit serum looped peptides): unit not given here

EEVQQELYSPLFLIV
0.4: Rabbit serum linear peptides [3]
0.6: Binding of serum 1b to linear peptides of protein X4 of SARS-CoV Urbani [1] | Binding of serum 2 to linear peptides of protein X4 of SARS-CoV Urbani [1] | Binding of serum 6 to linear peptides of protein X4 of SARS-CoV Urbani [1] | Binding of Control serum Blood-bank to linear peptides [2] | Binding of Control serum LUMC to linear peptides [2]
0.8: Binding of serum 62 to linear peptides of protein X4 of SARS-CoV Urbani [1] | Binding of serum SARS-yellow to linear peptides of protein X4 of SARS-CoV Urbani [1]
1.0: Binding of Control Serum Blood-Bank to Looped peptides [2] | Binding of Control serum LUMC to looped peptides [2]
0.7: Binding of serum 1a to linear peptides of protein X4 of SARS-CoV Urbani [1] | Binding of serum 37 to linear peptides of protein X4 of SARS-CoV Urbani [1] | Binding of serum London to linear peptides of protein X4 of SARS-CoV Urbani [1] | Binding of serum SARS-green to linear peptides of protein X4 of SARS-CoV Urbani [1]
0.5: Rabbit serum looped peptides [3]
recognized in looped/cyclic form: Recognition of the peptide by sera of SARS-CoV infected individuals, and form (linear, looped/cyclic) in which it is recognized [1]

EGDGISTPKLKEDYQ
0.3: Binding of serum 1b to linear peptides of protein X1 of SARS-CoV Urbani [1] | Binding of serum 1b to looped/cyclic peptides of protein X1 of SARS-CoV Urbani [1] | Binding of serum 6 to linear peptides of protein X1 of SARS-CoV Urbani [1] | Binding of serum 37 to looped/cyclic peptides of protein X1 of SARS-CoV Urbani [1] | Binding of serum 62 to looped/cyclic peptides of protein X1 of SARS-CoV Urbani [1] | Binding of serum London to linear peptides of protein X1 of SARS-CoV Urbani [1] | Binding of Control serum LUMC to linear peptides [2]
0.4: Binding of serum 1a to looped/cyclic peptides of protein X1 of SARS-CoV Urbani [1] | Binding of serum 62 to linear peptides of protein X1 of SARS-CoV Urbani [1] | Binding of Control Serum Blood-Bank to Looped peptides [2] | Binding of Control serum LUMC to looped peptides [2] | Binding of a rabbit serum to looped peptides [3]
0.2: Binding of serum 2 to looped/cyclic peptides of protein X1 of SARS-CoV Urbani [1] | Binding of serum 6 to looped/cyclic peptides of protein X1 of SARS-CoV Urbani [1] | Binding of serum London to looped/cyclic peptides of protein X1 of SARS-CoV Urbani [1] | Binding of serum SARS-green to linear peptides of protein X1 of SARS-CoV Urbani [1] | Binding of serum SARS-green to looped/cyclic peptides of protein X1 of SARS-CoV Urbani [1] | Binding of serum SARS-yellow to linear peptides of protein X1 of SARS-CoV Urbani [1] | Binding of Control serum Blood-bank to linear peptides [2]
0.6: Binding of serum 1a to linear peptides of protein X1 of SARS-CoV Urbani [1] | Binding of serum 2 to linear peptides of protein X1 of SARS-CoV Urbani [1]
0.5: Binding of serum 37 to linear peptides of protein X1 of SARS-CoV Urbani [1]
0.1: Binding of serum SARS-yellow to looped/cyclic peptides of protein X1 of SARS-CoV Urbani [1] | Binding of a rabbit serum to linear peptides [3]

EITVATSRTLSYYKL
0.3: Binding of serum London to linear peptides of protein M of SARS-CoV Urbani [1] | Binding of serum SARS-green to looped/cyclic peptides of protein M of SARS-CoV Urbani [1]
0.8: Binding of serum 37 to linear peptides of protein M of SARS-CoV Urbani [1]
0.4: Binding of serum 1b to looped/cyclic peptides of protein M of SARS-CoV Urbani [1] | Binding of serum 6 to linear peptides of protein M of SARS-CoV Urbani [1] | Binding of serum SARS-green to linear peptides of protein M of SARS-CoV Urbani [1] | Binding of Control serum LUMC to linear peptides of the protein M of SARS-CoV Urbani [2]
0.9: Binding of serum 62 to linear peptides of protein M of SARS-CoV Urbani [1]
0.7: Binding of serum 1a to linear peptides of protein M of SARS-CoV Urbani [1] | Binding of Control Serum Blood-Bank to Looped peptides of the protein M of SARS-CoV Urbani [2] | Binding of Control serum Blood-bank to linear peptides of the protein M of SARS-CoV Urbani [2] | Rabbit serum linear peptides [3]
0.5: Binding of serum 1b to linear peptides of protein M of SARS-CoV Urbani [1] | Binding of serum 2 to looped/cyclic peptides of protein M of SARS-CoV Urbani [1] | Binding of serum 6 to looped/cyclic peptides of protein M of SARS-CoV Urbani [1] | Binding of serum 37 to looped/cyclic peptides of protein M of SARS-CoV Urbani [1] | Binding of serum 62 to looped/cyclic peptides of protein M of SARS-CoV Urbani [1] | Binding of serum SARS-yellow to looped/cyclic peptides of protein M of SARS-CoV Urbani [1]
0.6: Binding of serum 1a to looped/cyclic peptides of protein M of SARS-CoV Urbani [1] | Binding of serum 2 to linear peptides of protein M of SARS-CoV Urbani [1] | Binding of Control serum LUMC to looped peptides of the protein M of SARS-CoV Urbani [2]
0.1: Binding of serum SARS-yellow to linear peptides of protein M of SARS-CoV Urbani [1] | Rabbit serum looped peptides [3]
0.2: Binding of serum London to looped/cyclic peptides of protein M of SARS-CoV Urbani [1]

ELLIQQWIQFMMSRR
0.6: Binding of serum 37 to linear peptides of protein X2 [1] | Binding of serum 62 to linear peptides of protein X2 [1] | Binding of serum 62 to looped/cyclic peptides of protein X2 of SARS-CoV Urbani [1] | Binding of serum SARS-green to linear peptides of protein X2 [1] | Binding of Control Serum Blood-Bank to Looped peptides [2]
0.3: Binding of serum 6 to linear peptides of protein X2 [1] | Binding of serum 6 to looped/cyclic peptides of protein X2 of SARS-CoV Urbani [1]
0.5: Binding of serum 1a to looped/cyclic peptides of protein X2 of SARS-CoV Urbani [1] | Binding of serum 1b to linear peptides of protein X2 [1] | Binding of serum 2 to looped/cyclic peptides of protein X2 of SARS-CoV Urbani [1] | Binding of serum 37 to looped/cyclic peptides of protein X2 of SARS-CoV Urbani [1] | Binding of Control serum Blood-bank to linear peptides [2] | Binding of Control serum LUMC to looped peptides [2]
0.4: Binding of serum 1b to looped/cyclic peptides of protein X2 of SARS-CoV Urbani [1] | Binding of serum 2 to linear peptides of protein X2 [1] | Binding of serum London to linear peptides of protein X2 [1] | Binding of serum SARS-green to looped/cyclic peptides of protein X2 of SARS-CoV Urbani [1] | Binding of serum SARS-yellow to looped/cyclic peptides of protein X2 of SARS-CoV Urbani [1] | Binding of Control serum LUMC to linear peptides [2] | Binding of a rabbit serum to linear peptides [3] | Binding of a rabbit serum to looped peptides [3]
0.8: Binding of serum SARS-yellow to linear peptides of protein X2 [1]
0.7: Binding of serum 1a to linear peptides of protein X2 [1]
0.2: Binding of serum London to looped/cyclic peptides of protein X2 of SARS-CoV Urbani [1]
